{
  "source": "patent US20070014833A1",
  "about": "“Treatment of eye disorders with sirtuin modulators” (priority 2005, published 2007)",
  "key": {"[1]": {"tested_on": "retinal ganglion cells (RGCs)", "test": "Retinal ganglion cell (RGC) counts in EAE mice with acute optic neuritis, intravitreal treatment", "details": "for RGC loss: EAE eyes with optic neuritis", "protocol": "Study outline: The neuroprotective effects of nicotinamide riboside were examined in EAE mice with optic neuritis. […] To induce EAE, mice were immunized several days later with 300 μg PLP emulsified in complete Freund's adjuvant (CFA), and control mice (without EAE) were mock-immunized with phosphate buffered saline (PBS) in CFA. All mice received 200 ng intraperitoneal pertussis toxin (PT) on the day of immunization (day 0) and again on day 2.\nEyes were treated with nicotinamide riboside by intravitreal (ivt) injections with a volume of 0.8 μl/injection of a stock solution of either 0.1 M or 0.4 M nicotinamide riboside in PBS (Groups 2, 4 and 5). […] Treament with nicotinamide riboside, as well as PBS control injections, were given ivt on days 0, 4, 7 and 11. Mice were scored daily for clinical EAE, and were sacrificed on day 14 by overdose with ketamine and xylazine.\nRetinas were dissected and whole-mounted for fluorescent microscopy. RGC numbers were quantified by counting FG-labeled cells in 12 standardized fields in each retina. Optic nerves were dissected and processed for histology. Cut sections stained by H & E were evaluated for the presence of inflammatory cells to determine acute optic neuritis. RGCs were compared between PBS-treated and nicotinamide riboside-treated eyes with optic neuritis to determine whether nicotinamide riboside prevents loss of neurons."}, "optic neuritis / EAE": {"tested_on": "optic neuritis / EAE", "test": "Incidence of optic neuritis (optic nerve histology, H & E) and clinical EAE score in PLP-immunized mice", "assay_type": "in vivo, SJL/J mice"}},
  "data": [
    {"compound": "NC(=O)c1ccc[n+]([C@@H]2O[C@H](CO)[C@@H](O)[C@H]2O)c1", "note": "[nicotinamide riboside]", "values": [
      {"measurement": "Preserving RGCs in an acute optic neuritis model (FIG. 19)", "setting": "[1]", "value": "effective"},
      {"measurement": "RGC loss", "setting": "[1]; 100 mM treatment (Group 4) vs PBS-treated (Group 3)", "value": "reduced"},
      {"measurement": "RGC loss", "setting": "[1]; 400 mM treatment (Group 5) vs PBS-treated (Group 3)", "value": "completely blocked"},
      {"measurement": "Neuroprotection of RGCs during acute optic neuritis in EAE", "setting": "[1]; dose-dependent manner", "value": "neuroprotective"},
      {"measurement": "Toxicity to RGCs", "setting": "[1]; mouse, in vivo", "value": "not toxic"},
      {"measurement": "RGC numbers, non-EAE eyes treated vs control eyes", "setting": "[1]; non-EAE eyes, Group 2 vs Group 1", "value": "no difference"},
      {"measurement": "Inflammatory cell infiltration", "setting": "optic neuritis / EAE; optic nerve", "value": "does not prevent"},
      {"measurement": "Clinical EAE", "setting": "optic neuritis / EAE; treated mice vs controls", "value": "did not differ"},
      {"measurement": "Incidence of optic neuritis", "setting": "optic neuritis / EAE; treated mice vs controls", "value": "did not differ"}
    ]}
  ]
}
